Laboratory results reported in patent US12247064B2, “Modified ligand-gated ion channels and methods of use” (Howard Hughes Medical Institute, priority 2017, dated 2025).
Where two headings read alike, the source gives them in different places.

Columns and labels:
α7-GlyR [1] = biological target: T1, α7-GlyR (Homo sapiens, UniProt P36544)
α7-5HT3 [2] = biological target: T2, α7-5HT3 (Homo sapiens, UniProt P36544, M226I/T225I)
[3] = tested on: α7GlyR G175K / A298G mutant chimeric channels; assay type: cell-based, human
α7GABAc W298A (GABAA-ρ) = experiment: Agonist potency at α7GABAc channel with W298A (Table 7); assay type: cell-based, human; details: a7GABAc Q79G L141F W298A
α7-5HT3 [4] = biological target: T2, α7-5HT3; remark: listed apart in the source
α7-GlyR [5] = biological target: T1, α7-GlyR; experiment: cell-based
5HT3-R = biological target: T3, 5HT3-R (Homo sapiens, UniProt P46098); experiment: Agonist potency at 5HT3-R; assay type: cell-based
T3 sequence (P46098 24-478): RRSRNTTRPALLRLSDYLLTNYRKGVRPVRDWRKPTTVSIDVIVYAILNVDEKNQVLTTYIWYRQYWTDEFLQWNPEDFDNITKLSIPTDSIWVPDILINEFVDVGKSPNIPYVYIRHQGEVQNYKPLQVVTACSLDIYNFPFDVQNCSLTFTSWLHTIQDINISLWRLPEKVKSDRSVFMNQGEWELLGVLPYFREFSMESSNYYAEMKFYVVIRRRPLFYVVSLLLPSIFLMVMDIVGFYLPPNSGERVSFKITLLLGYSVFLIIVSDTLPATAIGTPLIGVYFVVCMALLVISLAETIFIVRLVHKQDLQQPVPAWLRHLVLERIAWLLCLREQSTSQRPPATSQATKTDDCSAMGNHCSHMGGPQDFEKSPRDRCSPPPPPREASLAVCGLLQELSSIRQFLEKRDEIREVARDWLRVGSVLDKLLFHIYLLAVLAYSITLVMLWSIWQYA

α4β2 nAChR = α4β2 nAChR (Homo sapiens, UniProt P17787+P43681); experiment: Agonist potency at α4β2 nAChR
α4β2 nAChR, sequence (P43681 29-627 limits assumed): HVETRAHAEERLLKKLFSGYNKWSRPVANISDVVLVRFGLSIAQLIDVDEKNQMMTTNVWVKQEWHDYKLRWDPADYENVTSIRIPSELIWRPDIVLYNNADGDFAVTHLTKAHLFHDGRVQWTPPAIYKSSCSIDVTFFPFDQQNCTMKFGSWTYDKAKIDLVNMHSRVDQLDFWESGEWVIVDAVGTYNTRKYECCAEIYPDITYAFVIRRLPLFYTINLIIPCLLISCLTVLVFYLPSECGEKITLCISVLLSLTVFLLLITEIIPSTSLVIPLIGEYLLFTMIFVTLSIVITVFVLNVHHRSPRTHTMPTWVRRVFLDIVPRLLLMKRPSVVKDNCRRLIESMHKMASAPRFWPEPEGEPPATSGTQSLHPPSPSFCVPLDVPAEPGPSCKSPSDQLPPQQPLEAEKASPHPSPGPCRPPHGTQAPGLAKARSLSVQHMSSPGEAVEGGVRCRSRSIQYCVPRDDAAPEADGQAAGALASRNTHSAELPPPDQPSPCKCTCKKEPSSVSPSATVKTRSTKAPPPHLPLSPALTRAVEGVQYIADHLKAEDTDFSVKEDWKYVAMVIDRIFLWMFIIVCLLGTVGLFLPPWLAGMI
α4β2 nAChR, sequence (P17787 26-502): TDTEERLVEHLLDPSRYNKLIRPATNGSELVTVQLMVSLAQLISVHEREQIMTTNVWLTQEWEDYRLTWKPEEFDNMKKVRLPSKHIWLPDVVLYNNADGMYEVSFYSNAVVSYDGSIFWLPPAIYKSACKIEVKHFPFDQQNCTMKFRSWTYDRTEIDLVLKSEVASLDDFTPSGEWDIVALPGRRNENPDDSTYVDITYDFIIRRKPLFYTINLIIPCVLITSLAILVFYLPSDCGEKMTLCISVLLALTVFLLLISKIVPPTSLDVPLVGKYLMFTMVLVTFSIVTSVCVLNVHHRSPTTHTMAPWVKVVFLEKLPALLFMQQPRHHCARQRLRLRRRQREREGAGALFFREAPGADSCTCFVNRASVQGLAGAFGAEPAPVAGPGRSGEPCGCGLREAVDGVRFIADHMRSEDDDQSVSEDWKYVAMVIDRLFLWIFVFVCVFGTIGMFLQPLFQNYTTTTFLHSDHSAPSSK

[6] = tested on: mice expressing PSAM^4-GlyR unilaterally in SNr; experiment: Unilateral SNr silencing rotation assay; assay type: in vivo, mouse; details: SNr silencing rotation assay in mice
[7] = read-out: α7-5HT3 EC50, HEK cells, Table 3

T2 sequence (P36544 with tags, fused parts or gaps T225I/M226I limits assumed): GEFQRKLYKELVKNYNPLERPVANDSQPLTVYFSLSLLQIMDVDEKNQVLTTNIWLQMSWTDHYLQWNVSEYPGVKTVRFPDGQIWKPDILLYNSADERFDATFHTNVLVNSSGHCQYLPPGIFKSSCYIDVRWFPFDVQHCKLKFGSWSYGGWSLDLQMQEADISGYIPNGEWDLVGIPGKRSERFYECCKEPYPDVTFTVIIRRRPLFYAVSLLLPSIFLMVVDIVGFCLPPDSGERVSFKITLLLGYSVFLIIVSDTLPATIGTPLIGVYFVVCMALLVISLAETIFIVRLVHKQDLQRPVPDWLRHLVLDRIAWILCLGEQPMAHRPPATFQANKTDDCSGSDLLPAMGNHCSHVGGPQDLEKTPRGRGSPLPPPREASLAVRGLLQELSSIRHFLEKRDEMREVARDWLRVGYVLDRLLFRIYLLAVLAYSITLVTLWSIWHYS
T1 sequence (P36544 with tags, fused parts or gaps): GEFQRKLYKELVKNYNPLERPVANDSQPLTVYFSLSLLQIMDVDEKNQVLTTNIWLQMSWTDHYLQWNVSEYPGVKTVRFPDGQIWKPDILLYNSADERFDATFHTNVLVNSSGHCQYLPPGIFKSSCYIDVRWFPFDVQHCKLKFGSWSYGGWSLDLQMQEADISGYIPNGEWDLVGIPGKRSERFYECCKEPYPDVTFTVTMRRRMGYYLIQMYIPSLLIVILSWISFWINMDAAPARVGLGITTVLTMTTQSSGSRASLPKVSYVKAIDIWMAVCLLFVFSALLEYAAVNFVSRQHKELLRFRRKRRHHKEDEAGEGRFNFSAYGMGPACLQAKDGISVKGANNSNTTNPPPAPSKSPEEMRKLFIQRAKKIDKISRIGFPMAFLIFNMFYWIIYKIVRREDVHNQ

Row | Structure (SMILES) | EC50 (α7-5HT3 [4]) [µM] | EC50 (α7-GlyR [5]) [µM] | EC50 (5HT3-R; 5HT3-R, Table 10) [µM] | EC50 (α4β2 nAChR; […], α4β2 nAChR, Table 10) [µM] | further results
1 | COc1ccc(OC)c(C(=O)NC2C3CCN(CC3)C2Cc2cccnc2)c1 (mixture of isomers) [compound 0434] |  |  |  |  | EC50 (α7-GlyR [1]): > 10 µM; EC50 (α7-5HT3 [2]; [7]): > 10 µM
2 | O=C(NC1C2CCN(CC2)C1Cc1cccnc1)c1ccc(C(F)(F)F)cc1 (mixture of isomers) [compound 0436] |  |  |  |  | EC50 (α7-GlyR [1]): 0.31 µM; EC50 (α7-5HT3 [2]; [7]): 0.84 µM
3 | O=c1cccc2n1C[C@@H]1CNC[C@H]2C1 [Cytisine] |  |  |  |  | EC50 ([3]; read-out: Agonist potency; α7GlyR Q79G A298G G175K Y115F): 4.6 µM; EC50 ([3]; read-out: Agonist potency; α7GlyR Q79G A298G P216I): 5.5 µM; EC50 ([3]; read-out: Agonist potency; α7GlyR Q79G A298G Y115F K395 K396A): > 30 µM; EC50 ([3]; read-out: Agonist potency; α7GlyR Q79G G175K A298G): 0.134 µM; EC50 ([3]; read-out: Agonist potency; α7GlyR Q79G W77F A298G): 14.1 µM; EC50 ([3]; read-out: Agonist potency; α7GlyR R27D E41R Q79G Y115F): > 30 µM; EC50 (α7GABAc W298A (GABAA-ρ)): 13.3 µM
4 | Clc1ccc(C2CC3CCC2N3)cn1 (centres unmarked) [Epibatidine] |  |  |  |  | EC50 ([3]; α7GlyR Q79G A298G G175K Y115F; read-out: Agonist potency): 0.011 µM; EC50 ([3]; α7GlyR Q79G A298G P216I; read-out: Agonist potency): 0.05 µM; EC50 ([3]; α7GlyR Q79G A298G Y115F K395 K396A; read-out: Agonist potency): 0.15 µM; EC50 ([3]; α7GlyR Q79G G175K A298G; read-out: Agonist potency): 0.0023 µM; EC50 ([3]; α7GlyR Q79G W77F A298G; read-out: Agonist potency): 0.37 µM; EC50 ([3]; α7GlyR R27D E41R Q79G Y115F; read-out: Agonist potency): 0.267 µM; EC50 (α7GABAc W298A (GABAA-ρ)): 0.42 µM
5 | CN1C2CCCC1CC(NC(=O)c1nn(C)c3ccccc13)C2 (centres unmarked) [Granisetron, reference compound] |  |  |  |  | activation of channel (α7-5HT3 [2]): does not activate
6 | O=C(N[C@@H]1CN2CCC1CC2)c1ccc(C(F)(F)F)cn1 [compound 0295] |  |  |  |  | EC50 (α7-GlyR [1]): > 100 µM; EC50 (α7-5HT3 [2]; [7]): > 100 µM
7 | O=C(NC1CN2CCC1CC2)c1ccc(C(F)(F)F)nc1 (centres unmarked) [compound 0296] |  |  |  |  | EC50 (α7-5HT3 [2]; [7]): > 100 µM
8 | O=C(Nc1ccccc1)N[C@@H]1CN2CCC1CC2 [compound 0353] |  |  |  |  | EC50 (α7-GlyR [1]): 0.27 µM; EC50 (α7-5HT3 [2]; [7]): 0.65 µM
9 | S=C(Nc1ccc(Cl)cc1)NC1CN2CCC1CC2 (centres unmarked) [compound 0354] |  |  |  |  | partial agonist activity (α7-5HT3 [2]; HEK cells, Table 3): 1.4 partial
10 | CN1C2CCC1CC(NC(=S)c1c[nH]c3ccccc13)C2 (centres unmarked) [compound 0542] |  |  |  |  | EC50 (α7-5HT3 [2]; [7]): 3.8 µM
11 | O=C(N[C@@H]1CN2CCC1CC2)c1c[nH]c2ccccc12 [compound 0676] |  |  |  |  | EC50 (α7-5HT3 [2]; [7]): 0.03 µM
12 | Cc1ccccc1-c1cnc2cc3c(cc2n1)C1CNCC3C1 (centres unmarked) [compound 780] | 10.6 | > 100 |  |  | 
13 | Cc1ccccc1-c1cnc2cc3c(cc2n1)C1CC3CN(C)C1 (centres unmarked) [compound 782] | > 100 | > 100 | > 30 |  | 
14 | Cc1nc2cc3c(cc2[nH]c1=O)C1CNCC3C1 (centres unmarked) [compound 783] |  | > 100 | 0.43 |  | EC50 (α4β2 nAChR; […]): 43 µM
15 | O=c1[nH]c2cc3c(cc2nc1-c1ccccc1)C1CNCC3C1 (centres unmarked) [compound 784] | > 30 | > 30 | 6.2 |  | 
16 | c1c2c(cc3nc4c(nc13)CCCC4)C1CNCC2C1 [compound 785] |  | > 100 | 10.2 |  | 
17 | c1cncc(-c2nc3cc4c(cc3[nH]2)C2CNCC4C2)c1 (centres unmarked) [compound 786, 2-(pyridin-3-yl)-1,5,6,7,8,9-hexahydro-5,9-methanoimidazo[4′,5′:4,5]benzo[1,2-d]azepine] | > 100 | > 100 |  |  | 
18 | FC(F)(F)c1cnc2cc3c(cc2n1)C1CNCC3C1 (centres unmarked) [compound 788] | > 100 | > 100 | 41 | > 30 | 
19 | COc1nc2cc3c(cc2nc1-c1ccccc1)C1CNCC3C1 (centres unmarked) [compound 789] | > 100 | > 100 | 0.51 | > 30 | 

Row | Structure (SMILES) | EC50 (α7-5HT3 [4]) [µM] | EC50 (α7-GlyR [5]) [µM] | EC50 (5HT3-R; 5HT3-R, Table 10) [µM] | EC50 (α4β2 nAChR; […], α4β2 nAChR, Table 10) [µM] | further results
20 | Cc1nc2cc3c(cc2n(C)c1=O)C1CNCC3C1 (centres unmarked) [compound 790] | > 100 | > 100 | 4.3 | > 30 | 
21 | COc1nc2cc3c(cc2nc1C)C1CNCC3C1 (centres unmarked) [compound 791] |  | > 30 | 0.17 | > 30 | 
22 | Cn1c(=O)cnc2cc3c(cc21)C1CNCC3C1 (centres unmarked) [compound 792] | > 30 |  | 40.5 |  | EC50 (α7-GlyR [1]): > 30 µM
23 | COc1cnc2cc3c(cc2n1)C1CNCC3C1 (centres unmarked) [compound 793] |  |  |  |  | EC50 (α7-GlyR [1]): 19 µM; EC50 (5HT3-R): 0.19 µM
24 | Cc1nc2cc3c(cc2nc1N(C)C)C1CNCC3C1 (centres unmarked) [compound 794] |  | > 30 | 1.7 | > 30 | 
25 | CCN(CC)c1nc2cc3c(cc2nc1C)C1CNCC3C1 (centres unmarked) [compound 795] |  | > 30 | 1.1 | > 30 | EC50 (5HT3-R; read-out: potency for 5HT3-R): > 1 µM; EC50 (α4β2 nAChR; potency for α4β2 nAChR): > 10 µM
26 | Cc1nc2cc3c(cc2nc1-n1ccnc1)C1CNCC3C1 (centres unmarked) [compound 798] | > 30 | > 30 | 1.1 | 28 | 
27 | c1ccn(-c2cnc3cc4c(cc3n2)C2CNCC4C2)c1 (centres unmarked) [compound 799] |  | > 100 | 11.7 | 3.5 | 
28 | c1cn(-c2cnc3cc4c(cc3n2)C2CNCC4C2)cn1 (centres unmarked) [compound 800] |  | > 30 | 3.5 | 13.9 | 
29 | c1ncn(-c2cnc3cc4c(cc3n2)C2CNCC4C2)n1 (centres unmarked) [compound 801] |  | > 30 | 4.4 | 26 | 
30 | Cc1nc2cc3c(cc2nc1-c1cccnc1)C1CNCC3C1 (centres unmarked) [compound 802] |  | > 30 |  |  | EC50 (5HT3-R; […], 5HT3-R, Table 10): 1.5 µM; EC50 (5HT3-R; potency for 5HT3-R): > 1 µM; EC50 (α4β2 nAChR; […]): > 30 µM; EC50 (α4β2 nAChR; potency for α4β2 nAChR): > 10 µM
31 | Cc1nc2cc3c(cc2nc1-c1ccncc1)C1CNCC3C1 (centres unmarked) [compound 803] |  | > 30 |  |  | EC50 (5HT3-R; […], 5HT3-R, Table 10): 0.75 µM; EC50 (α4β2 nAChR; […]): 14 µM
32 | c1cncc(-c2cnc3cc4c(cc3n2)C2CNCC4C2)c1 (centres unmarked) [compound 804] |  | > 30 |  |  | EC50 (5HT3-R; […], 5HT3-R, Table 10): 2 µM; EC50 (α4β2 nAChR; […]): 4.8 µM
33 | c1cc(-c2cnc3cc4c(cc3n2)C2CNCC4C2)ccn1 (centres unmarked) [compound 805] |  | > 30 |  |  | EC50 (5HT3-R; […], 5HT3-R, Table 10): 1 µM; EC50 (α4β2 nAChR; […]): 4.9 µM
34 | Cc1nc2cc3c(cc2nc1Cn1cncn1)C1CNCC3C1 (centres unmarked) [compound 807] | > 30 | > 30 | 0.57 | > 30 | 
35 | Cc1nc2cc3c(cc2nc1-n1cncn1)C1CNCC3C1 (centres unmarked) [compound 808] | > 30 | > 30 | 12.5 | > 30 | EC50 (5HT3-R; read-out: potency for 5HT3-R): > 1 µM; EC50 (α4β2 nAChR; potency for α4β2 nAChR): > 10 µM
36 | Cc1nc2cc3c(cc2nc1Cn1cccn1)C1CNCC3C1 (centres unmarked) [compound 812] | > 100 | > 100 | 11 | > 100 | 
37 | CCOc1cnc2cc3c(cc2n1)C1CNCC3C1 (centres unmarked) [compound 815] |  |  |  |  | In vivo potency [6]: 0.1 mpk; EC50 (α7-GlyR [1]): > 100 µM; EC50 (α7-5HT3 [2]; read-out: EC50MP): > 100 µM; α4β2 nAChR agonism (α4β2 nAChR): do not show evident α4β2 nAChR agonism; EC50 (α4β2 nAChR; read-out: EC50MP): > 30 µM
